# “And” between values parts separate entries of the source, which are not always exact repeats. Equal values may be shown once. Where a name gives a salt, the structure may show the parent alone. Read-outs that look alike come from different tables or passages of the source. Marks after values point to notes of the source that are not given here.
# Experiments:
# [1] = system: eyes of patients with pupil size in dim light of greater than 7 mm; assay: Example 2 clinical study: pupil diameter by NeurOptics pupilometer; one drop oxymetazoline (Visine LR) then one drop test article in Tears Naturale II in each eye; format: in vivo, humans; conditions: for Range of pupil diameters: immediately prior to administration
# Experimental: (§1) Sixteen patients were randomized into four groups (of four subjects each). Each group was treated on three successive study visits separated by at least 4 days with one drop of ophthalmic oxymetazoline solution (Visine LR®) in each eye followed by one drop test article in each eye. The test article was a 0.2% (w/v) phentolamine mesylate solution, 0.4% (w/v) phentolamine mesylate solution, 0.8% (w/v) phentolamine mesylate solution, or placebo. Test articles contained the designed amount of phentolamine mesylate in a solution of Tears Naturale II® (from Alcon Labs). Placebo was just Tears Naturale II® (from Alcon Labs). Tears Naturale II® (from Alcon Labs) contains Dextran 70 (0.1% by weight), Hydroxypropyl Methylcellulose 2910 (0.3% by weight), Polyquarternium-1 (0.001% by weight), potassium chloride, water (purified), sodium borate, sodium chloride, and hydrochloric acid and/or sodium hydroxide as necessary to adjust the pH. The patients' eye redness and pupil diameters were recorded at baseline (i.e., prior to treatment administration), and at 30 minutes, 1 hour, 2 hours, 4 hours, and 8 hours after administration of test articles. The incidence of any treatment-emergent adverse events was also recorded. Total study duration was approximately nine hours.
# (§2) Eye redness of patients' eyes was evaluated by the research assistant and recorded as a single integer of value 0 (no redness) to 4 (extreme redness) at baseline and each time point after treatment. Pupil diameters were measured to within 0.1 mm for each eye at baseline and each subsequent time point using a NeurOptics™ pupilometer. Monocular high contrast visual acuity was measured for each eye under photopic conditions at baseline and each subsequent time point in a darkened room using a Precision Vision™ High Contrast (100% tint) Visual Acuity Chart (Catalog #2102) backlit by the Precision Vision Illumination Box. Monocular low contrast visual acuity was measured for each eye under photopic conditions at baseline and each subsequent time point in a darkened room using a Precision Vision™ Low Contrast (5% tint) Visual Acuity Chart (Catalog #2186) backlit by the Precision Vision Illumination Box. Effect of treatment on glare was assessed using an experimental test method consisting of a panel with a high wattage central light emitting diode (LED) and a set of 7 lower wattage red LEDs radiating horizontally and vertically from the central light.
# Comparisons of changes in mean values within treatment groups were tested for significance using two-tailed paired two sample t-tests with a threshold for significance set at p<0.01 (Bonferroni Correction for multiple paired t-tests). Differences between treatment groups with respect to mean values for pupil size over the course of the study were tested for significance using repeated measure ANOVA (which discards data from subjects lacking any data points). Differences in mean eye redness between treatment groups were evaluated using Kruskal-Wallis nonparametric testing. Differences in means between treatment groups at individual time points were tested for significance using one-way ANOVA.
# [2] = system: eyes of patients with pupil size in dim light of greater than 7 mm; set-up: species or system humans; conditions: human, in vivo
# Experimental: as §1, §2
# Comparisons of changes in mean values within treatment groups were tested for significance using two-tailed paired two sample t-tests with a threshold for significance set at p<0.01 (Bonferroni Correction for multiple paired t-tests). […] Differences in mean eye redness between treatment groups were evaluated using Kruskal-Wallis nonparametric testing. […]
# [3] = 0.2% (w/v) solution, 30 min after treatment
# [4] = 0.2% (w/v) solution, 1 hour after treatment
# [5] = 0.2% (w/v) solution, 2 hours after treatment
# [6] = 0.2% (w/v) solution, 4 hours after treatment
# [7] = 0.2% (w/v) solution, 8 hours after treatment
# [8] = 0.2% (w/v) solution, Baseline, prior to treatment
# [9] = 0.4% (w/v) solution, 30 min after treatment
# [10] = 0.4% (w/v) solution, 1 hour after treatment
# [11] = 0.4% (w/v) solution, 2 hours after treatment
# [12] = 0.4% (w/v) solution, 4 hours after treatment
# [13] = 0.4% (w/v) solution, 8 hours after treatment
# [14] = 0.4% (w/v) solution, Baseline, prior to treatment
# [15] = 0.8% (w/v) solution, 30 min after treatment
# [16] = 0.8% (w/v) solution, 1 hour after treatment
# [17] = 0.8% (w/v) solution, 2 hours after treatment
# [18] = 0.8% (w/v) solution, 4 hours after treatment
# [19] = 0.8% (w/v) solution, 8 hours after treatment
# [20] = 0.8% (w/v) solution, Baseline, prior to treatment
compound,measurement,setting,value
"Cc1ccc(N(CC2=NCCN2)c2cccc(O)c2)cc1 [Phentolamine Mesylate, phentolamine mesylate]",Maximum pupil diameter,[1]; [3],9.2 mm
same,Mean change in pupil diameter from baseline,[1]; [3],−0.04 mm
same,Mean pupil diameter,[1]; [3],7.74 mm
same,Minimum pupil diameter,[1]; [3],5.1 mm
same,Maximum pupil diameter,[1]; [4],8.9 mm
same,Mean change in pupil diameter from baseline,[1]; [4],−0.24 mm
same,Mean pupil diameter,[1]; [4],7.54 mm
same,Minimum pupil diameter,[1]; [4],4.9 mm
same,Maximum pupil diameter,[1]; [5],8.4 mm
same,Mean change in pupil diameter from baseline,[1]; [5],−0.75 mm
same,Mean pupil diameter,[1]; [5],7.01^c mm
same,Minimum pupil diameter,[1]; [5],4.7 mm
same,Maximum pupil diameter,[1]; [6],8.0 mm
same,Mean change in pupil diameter from baseline,[1]; [6],−0.69 mm
same,Mean pupil diameter,[1]; [6],7.30^d mm
same,Minimum pupil diameter,[1]; [6],6.3 mm
same,Maximum pupil diameter,[1]; [7],8.5 mm
same,Mean change in pupil diameter from baseline,[1]; [7],−0.59 mm
same,Mean pupil diameter,[1]; [7],7.18 mm
same,Minimum pupil diameter,[1]; [7],4.7 mm
same,Range of pupil diameters,"[1]; 0.2% (w/v) solution, Baseline",5.2-8.8 mm
same,Maximum pupil diameter,[1]; [8],8.8 mm
same,Mean pupil diameter,[1]; [8],7.8 mm and 7.78 mm
same,Minimum pupil diameter,[1]; [8],5.2 mm
same,"change from baseline in mean pupil diameter, significance","[1]; 0.2%, 0.4% and 0.8% (w/v), by one hour post treatment, p<0.01",significant
same,mean pupil diameter between different doses,"[1]; 0.2%, 0.4%, 0.8% (w/v), any time point",no statistically significant differences
same,Maximum pupil diameter,[1]; [9],8.8 mm
same,Mean change in pupil diameter from baseline,[1]; [9],0.00 mm
same,Mean pupil diameter,[1]; [9],7.72 mm
same,Minimum pupil diameter,[1]; [9],5.6 mm
same,Maximum pupil diameter,[1]; [10],8.3 mm
same,Mean change in pupil diameter from baseline,[1]; [10],−0.29 mm
same,Mean pupil diameter,[1]; [10],7.41 mm
same,Minimum pupil diameter,[1]; [10],5.5 mm
same,Maximum pupil diameter,[1]; [11],8.4 mm
same,Mean change in pupil diameter from baseline,[1]; [11],−0.64 mm
same,Mean pupil diameter,[1]; [11],7.05 mm
same,Minimum pupil diameter,[1]; [11],5.0 mm
same,Maximum pupil diameter,[1]; [12],8.1 mm
same,Mean change in pupil diameter from baseline,[1]; [12],−0.74 mm
same,Mean pupil diameter,[1]; [12],7.01 mm
same,Minimum pupil diameter,[1]; [12],5.0 mm
same,Maximum pupil diameter,[1]; [13],8.6 mm
same,Mean change in pupil diameter from baseline,[1]; [13],−0.74 mm
same,Mean pupil diameter,[1]; [13],7.01 mm
same,Minimum pupil diameter,[1]; [13],4.8 mm
same,Range of pupil diameters,"[1]; 0.4% (w/v) solution, Baseline",5.8-8.6 mm
same,Maximum pupil diameter,[1]; [14],8.6 mm
same,Mean pupil diameter,[1]; [14],7.7 mm and 7.71 mm
same,Minimum pupil diameter,[1]; [14],5.8 mm
same,Maximum pupil diameter,[1]; [15],9.2 mm
same,Mean change in pupil diameter from baseline,[1]; [15],−0.10 mm
same,Mean pupil diameter,[1]; [15],7.87 mm
same,Minimum pupil diameter,[1]; [15],5.2 mm
same,Maximum pupil diameter,[1]; [16],9.1 mm
same,Mean change in pupil diameter from baseline,[1]; [16],−0.27 mm
same,Mean pupil diameter,[1]; [16],7.69 mm
same,Minimum pupil diameter,[1]; [16],5.1 mm
same,Maximum pupil diameter,[1]; [17],8.7 mm
same,Mean change in pupil diameter from baseline,[1]; [17],−0.66 mm
same,Mean pupil diameter,[1]; [17],7.30 mm
same,Minimum pupil diameter,[1]; [17],4.7 mm
same,Maximum pupil diameter,[1]; [18],8.6 mm
same,Mean change in pupil diameter from baseline,[1]; [18],−0.64 mm
same,Mean pupil diameter,[1]; [18],7.32 mm
same,Minimum pupil diameter,[1]; [18],5.5 mm
same,Maximum pupil diameter,[1]; [19],8.7 mm
same,Mean change in pupil diameter from baseline,[1]; [19],−0.56 mm
same,Mean pupil diameter,[1]; [19],7.40 mm
same,Minimum pupil diameter,[1]; [19],4.7 mm
same,Range of pupil diameters,"[1]; 0.8% (w/v) solution, Baseline",4.6-9.3 mm
same,Maximum pupil diameter,[1]; [20],9.3 mm
same,Mean pupil diameter,[1]; [20],8.0 mm and 7.96 mm
same,Minimum pupil diameter,[1]; [20],4.6 mm
same,mean pupil diameter compared to placebo (ad hoc Fisher's test),"[1]; any concentration (0.2%, 0.4%, 0.8% w/v), 2, 4 and 8 hours",significant differences
same,Range of eye redness scores,[2],0-1
same,eye redness,[2],modest increase in eye redness
same,mean eye redness versus placebo,[2],did not differ from placebo
same,Range of eye redness scores,[2]; 30 min,0-1
